Experimental data reported in ChEMBL document CHEMBL5518215, “Unlocking Antibacterial Potential: Key-Site-Based Regulation of Antibacterial Spectrum of Peptides” (J Med Chem, 2024).

Legend:
Escherichia coli [1] = assay: Antimicrobial activity against Escherichia coli 25922 assessed as absence bacterial growth measured after 18 to 24 hrs incubation by NCCLS method; format: functional; conditions: time 18-24 hrs
Escherichia coli [2] = assay: Antimicrobial activity against Escherichia coli K88 assessed as absence bacterial growth measured after 18 to 24 hrs incubation by NCCLS method; format: functional; conditions: time 18-24 hrs
Salmonella typhimurium [3] = assay: Antimicrobial activity against Salmonella typhimurium 14028 assessed as absence bacterial growth measured after 18 to 24 hrs incubation by NCCLS method; format: functional, Salmonella enterica subsp. enterica serovar Typhimurium; conditions: Salmonella enterica, time 18-24 hrs
[4] = Antimicrobial activity against Salmonella pullorum C7913 assessed as absence bacterial growth measured after 18 to 24 hrs incubation by NCCLS method; format: functional, Salmonella enterica subsp. enterica serovar Pullorum; conditions: Salmonella enterica, time 18-24 hrs
Pseudomonas aeruginosa [5] = assay: Antimicrobial activity against Pseudomonas aeruginosa 27853 assessed as absence bacterial growth measured after 18 to 24 hrs incubation by NCCLS method; format: functional; conditions: time 18-24 hrs
Acinetobacter baumannii [6] = assay: Antimicrobial activity against Acinetobacter baumannii 1.6769 assessed as absence bacterial growth measured after 18 to 24 hrs incubation by NCCLS method; format: functional; conditions: time 18-24 hrs
Enterococcus faecalis [7] = assay: Antimicrobial activity against Enterococcus faecalis 29212 assessed as absence bacterial growth measured after 18 to 24 hrs incubation by NCCLS method; format: functional; conditions: time 18-24 hrs
Listeria monocytogenes [8] = assay: Antimicrobial activity against Listeria monocytogenes 1.10753 assessed as absence bacterial growth measured after 18 to 24 hrs incubation by NCCLS method; format: functional; conditions: time 18-24 hrs
Bacillus cereus [9] = assay: Antimicrobial activity against Bacillus cereus 1.932 assessed as absence bacterial growth measured after 18 to 24 hrs incubation by NCCLS method; format: functional; conditions: time 18-24 hrs
Staphylococcus aureus [10] = assay: Antimicrobial activity against Staphylococcus aureus 29213 assessed as absence bacterial growth measured after 18 to 24 hrs incubation by NCCLS method; format: functional; conditions: time 18-24 hrs
Staphylococcus aureus [11] = assay: Antimicrobial activity against Methicillin-resistant Staphylococcus aureus 43300 assessed as absence bacterial growth measured after 18 to 24 hrs incubation by NCCLS method; format: functional; conditions: time 18-24 hrs
[12] = test system: Staphylococcus epidermidis; assay: Antimicrobial activity against Staphylococcus epidermidis 12228 assessed as absence bacterial growth measured after 18 to 24 hrs incubation by NCCLS method; format: functional; conditions: time 18-24 hrs
Staphylococcus aureus [13] = assay: Antimicrobial activity against Staphylococcus aureus 29213 assessed as absence bacterial growth measured after 18 to 24 hrs incubation by NCCLS m; format: functional; conditions: time 18-24 hrs
Escherichia coli [14] = assay: Antimicrobial activity against Escherichia coli 25922 assessed as bacterial killing measured after 16 hrs incubation; format: functional
Escherichia coli [15] = assay: Antimicrobial activity against Escherichia coli K88 assessed as bacterial killing measured after 16 hrs incubation; format: functional
Salmonella typhimurium [16] = assay: Antimicrobial activity against Salmonella typhimurium 14028 assessed as bacterial killing measured after 16 hrs incubation; format: functional, Salmonella enterica subsp. enterica serovar Typhimurium; conditions: Salmonella enterica
Salmonella typhimurium [17] = assay: Antimicrobial activity against Salmonella typhimurium C7731 assessed as bacterial killing measured after 16 hrs incubation; format: functional, Salmonella enterica subsp. enterica serovar Typhimurium; conditions: Salmonella enterica
[18] = Antimicrobial activity against Salmonella pullorum C7913 assessed as bacterial killing measured after 16 hrs incubation; format: functional, Salmonella enterica subsp. enterica serovar Pullorum; conditions: Salmonella enterica
Pseudomonas aeruginosa [19] = assay: Antimicrobial activity against Pseudomonas aeruginosa 27853 assessed as bacterial killing measured after 16 hrs incubation; format: functional
Acinetobacter baumannii [20] = assay: Antimicrobial activity against Acinetobacter baumannii 1.6769 assessed as bacterial killing measured after 16 hrs incubation; format: functional
Enterococcus faecalis [21] = assay: Antimicrobial activity against Enterococcus faecalis 29212 assessed as bacterial killing measured after 16 hrs incubation; format: functional
Listeria monocytogenes [22] = assay: Antimicrobial activity against Listeria monocytogenes 1.10753 assessed as bacterial killing measured after 16 hrs incubation; format: functional
Bacillus cereus [23] = assay: Antimicrobial activity against Bacillus cereus 1.932 assessed as bacterial killing measured after 16 hrs incubation; format: functional
Staphylococcus aureus [24] = assay: Antimicrobial activity against Staphylococcus aureus 29213 assessed as bacterial killing measured after 16 hrs incubation; format: functional
Staphylococcus aureus [25] = assay: Antimicrobial activity against Methicillin-resistant Staphylococcus aureus 43300 assessed as bacterial killing measured after 16 hrs incubation; format: functional
[26] = test system: Staphylococcus epidermidis; assay: Antimicrobial activity against Staphylococcus epidermidis 12228 assessed as bacterial killing measured after 16 hrs incubation; format: functional
Staphylococcus aureus [27] = assay: Antimicrobial activity against Staphylococcus aureus 25923 assessed as bacterial killing measured after 16 hrs incubation; format: functional
Salmonella typhimurium [28] = assay: Antimicrobial activity against Salmonella typhimurium C7731 assessed as absence bacterial growth measured after 18 to 24 hrs incubation by NCCLS method; format: functional, Salmonella enterica subsp. enterica serovar Typhimurium; conditions: Salmonella enterica, time 18-24 hrs
Escherichia coli [29] = assay: Antimicrobial activity against Escherichia coli 25922 assessed as absence bacterial growth measured after 18 to 24 hrs incubation in presence of 50% serum by NCCLS method; format: functional; conditions: time 18-24 hrs
Escherichia coli [30] = assay: Antimicrobial activity against Escherichia coli 25922 assessed as absence bacterial growth measured after 18 to 24 hrs incubation in presence of 25% serum by NCCLS method; format: functional; conditions: time 18-24 hrs
Escherichia coli [31] = assay: Antimicrobial activity against Escherichia coli 25922 assessed as absence bacterial growth measured after 18 to 24 hrs incubation in presence of 12.5% serum by NCCLS method; format: functional; conditions: time 18-24 hrs
[32] = Hemolytic activity in human RBC at effective concentration at 128 uM measured after 1 hr by microplate reader relative to control; format: toxicity, cell-based, Erythrocyte; conditions: human red blood cells (erythrocytes), read-out: Activity
Escherichia coli [33] = assay: Antimicrobial activity against Escherichia coli 25922 assessed as absence bacterial growth measured after 18 to 24 hrs incubation in presence of NaCl by NCCLS method; format: functional; conditions: time 18-24 hrs
Escherichia coli [34] = assay: Antimicrobial activity against Escherichia coli 25922 assessed as absence bacterial growth measured after 18 to 24 hrs incubation in presence of KCl by NCCLS method; format: functional; conditions: time 18-24 hrs
Escherichia coli [35] = assay: Antimicrobial activity against Escherichia coli 25922 assessed as absence bacterial growth measured after 18 to 24 hrs incubation in presence of NH4Cl by NCCLS method; format: functional; conditions: time 18-24 hrs
Escherichia coli [36] = assay: Antimicrobial activity against Escherichia coli 25922 assessed as absence bacterial growth measured after 18 to 24 hrs incubation in presence of MgCl2 by NCCLS method; format: functional; conditions: time 18-24 hrs
Escherichia coli [37] = assay: Antimicrobial activity against Escherichia coli 25922 assessed as absence bacterial growth measured after 18 to 24 hrs incubation in presence of ZnCl2 by NCCLS method; format: functional; conditions: time 18-24 hrs
Escherichia coli [38] = assay: Antimicrobial activity against Escherichia coli 25922 assessed as absence bacterial growth measured after 18 to 24 hrs incubation in presence of FeCl3 by NCCLS method; format: functional; conditions: time 18-24 hrs
Erythrocyte = assay: Hemolytic activity in human RBC at effective concentration measured after 1 hr by microplate reader analysis; format: toxicity, cell-based
[39] = Cytotoxicity against mouse RAW264.7 cells assessed as cell survival rate measured after 8 hrs by MTT assay; format: toxicity, cell-based
[40] = Cytotoxicity against human HEK-293T cells assessed as cell survival rate measured after 8 hrs by MTT assay; format: toxicity, cell-based
[41] = Cytotoxicity against porcine IPEC-J2 cells assessed as cell survival rate measured after 8 hrs by MTT assay; format: toxicity, cell-based, Sus scrofa; conditions: pig

## H-IKLWLKGGKLWLKGGKLWLKG-NH2
Escherichia coli [1]
  MIC: 4 µM
Escherichia coli [2]
  MIC: 2 µM
Salmonella typhimurium [3]
  MIC: 8 µM
[4]
  MIC: 2 µM
Pseudomonas aeruginosa [5]
  MIC: 8 µM
Acinetobacter baumannii [6]
  MIC: 8 µM
Enterococcus faecalis [7]
  MIC: > 32 µM
Listeria monocytogenes [8]
  MIC: > 32 µM
Bacillus cereus [9]
  MIC: > 32 µM
Staphylococcus aureus [10]
  MIC: > 32 µM
Staphylococcus aureus [11]
  MIC: > 32 µM
[12]
  MIC: > 32 µM
Staphylococcus aureus [13]
  MIC: > 32 µM
Escherichia coli [14]
  MBC: 8 µM
Escherichia coli [15]
  MBC: 2 µM
Salmonella typhimurium [16]
  MBC: 8 µM
Salmonella typhimurium [17]
  MBC: 32 µM
[18]
  MBC: 2 µM
Pseudomonas aeruginosa [19]
  MBC: 8 µM
Acinetobacter baumannii [20]
  MBC: 8 µM
Enterococcus faecalis [21]
  MBC: > 32 µM
Listeria monocytogenes [22]
  MBC: > 32 µM
Bacillus cereus [23]
  MBC: > 32 µM
Staphylococcus aureus [24]
  MBC: > 32 µM
Staphylococcus aureus [25]
  MBC: > 32 µM
[26]
  MBC: > 32 µM
Staphylococcus aureus [27]
  MBC: > 32 µM
Salmonella typhimurium [28]
  MIC: 8 µM
Escherichia coli [29]
  MIC: > 32 µM
Escherichia coli [30]
  MIC: > 32 µM
Escherichia coli [31]
  MIC: > 32 µM
[32]
  hemolysis at 1 h, 128 µM: < 10%
Escherichia coli [33]
  MIC: > 32 µM
Escherichia coli [34]
  MIC: 4 µM
Escherichia coli [35]
  MIC: 8 µM
Escherichia coli [36]
  MIC: > 32 µM
Escherichia coli [37]
  MIC: 16 µM
Escherichia coli [38]
  MIC: 16 µM
Erythrocyte
  HC10: > 128 µM
[39]
  IC50 at 8 h: > 64 µM
[40]
  IC50 at 8 h: > 64 µM
[41]
  IC50 at 8 h: 31.4 µM

## H-LKLWLKGGKLWLKGGKLWLKG-NH2
Escherichia coli [1]
  MIC: 4 µM
Escherichia coli [2]
  MIC: 1 µM
Salmonella typhimurium [3]
  MIC: > 32 µM
[4]
  MIC: 2 µM
Pseudomonas aeruginosa [5]
  MIC: 32 µM
Acinetobacter baumannii [6]
  MIC: 16 µM
Enterococcus faecalis [7]
  MIC: > 32 µM
Listeria monocytogenes [8]
  MIC: > 32 µM
Bacillus cereus [9]
  MIC: > 32 µM
Staphylococcus aureus [10]
  MIC: > 32 µM
Staphylococcus aureus [11]
  MIC: > 32 µM
[12]
  MIC: > 32 µM
Staphylococcus aureus [13]
  MIC: > 32 µM
Escherichia coli [14]
  MBC: 16 µM
Escherichia coli [15]
  MBC: 1 µM
Salmonella typhimurium [16]
  MBC: > 32 µM
Salmonella typhimurium [17]
  MBC: > 32 µM
[18]
  MBC: 2 µM
Pseudomonas aeruginosa [19]
  MBC: 32 µM
Acinetobacter baumannii [20]
  MBC: 16 µM
Enterococcus faecalis [21]
  MBC: > 32 µM
Listeria monocytogenes [22]
  MBC: > 32 µM
Bacillus cereus [23]
  MBC: > 32 µM
Staphylococcus aureus [24]
  MBC: > 32 µM
Staphylococcus aureus [25]
  MBC: > 32 µM
[26]
  MBC: > 32 µM
Staphylococcus aureus [27]
  MBC: > 32 µM
Salmonella typhimurium [28]
  MIC: > 32 µM
Escherichia coli [29]
  MIC: > 32 µM
Escherichia coli [30]
  MIC: > 32 µM
Escherichia coli [31]
  MIC: 32 µM
[32]
  hemolysis at 1 h, 128 µM: < 10%
Escherichia coli [33]
  MIC: > 32 µM
Escherichia coli [34]
  MIC: 8 µM
Escherichia coli [35]
  MIC: 8 µM
Escherichia coli [36]
  MIC: > 32 µM
Escherichia coli [37]
  MIC: 8 µM
Escherichia coli [38]
  MIC: 8 µM
Erythrocyte
  HC10: > 128 µM
[39]
  IC50 at 8 h: > 64 µM
[40]
  IC50 at 8 h: > 64 µM
[41]
  IC50 at 8 h: 33.4 µM

## H-FKLWLKGGKLWLKGGKLWLKG-NH2
Escherichia coli [1]
  MIC: 4 µM
Escherichia coli [2]
  MIC: 1 µM
Salmonella typhimurium [3]
  MIC: 4 µM
[4]
  MIC: 2 µM
Pseudomonas aeruginosa [5]
  MIC: 32 µM
Acinetobacter baumannii [6]
  MIC: 8 µM
Enterococcus faecalis [7]
  MIC: > 32 µM
Listeria monocytogenes [8]
  MIC: > 32 µM
Bacillus cereus [9]
  MIC: > 32 µM
Staphylococcus aureus [10]
  MIC: > 32 µM
Staphylococcus aureus [11]
  MIC: 16 µM
[12]
  MIC: > 32 µM
Staphylococcus aureus [13]
  MIC: > 32 µM
Escherichia coli [14]
  MBC: 8 µM
Escherichia coli [15]
  MBC: 1 µM
Salmonella typhimurium [16]
  MBC: 16 µM
Salmonella typhimurium [17]
  MBC: > 32 µM
[18]
  MBC: 2 µM
Pseudomonas aeruginosa [19]
  MBC: 32 µM
Acinetobacter baumannii [20]
  MBC: 8 µM
Enterococcus faecalis [21]
  MBC: > 32 µM
Listeria monocytogenes [22]
  MBC: > 32 µM
Bacillus cereus [23]
  MBC: > 32 µM
Staphylococcus aureus [24]
  MBC: 32 µM
Staphylococcus aureus [25]
  MBC: > 32 µM
[26]
  MBC: > 32 µM
Staphylococcus aureus [27]
  MBC: > 32 µM
Salmonella typhimurium [28]
  MIC: > 32 µM
Escherichia coli [29]
  MIC: > 32 µM
Escherichia coli [30]
  MIC: > 32 µM
Escherichia coli [31]
  MIC: 16 µM
[32]
  hemolysis at 1 h, 128 µM: < 10%
Escherichia coli [33]
  MIC: > 32 µM
Escherichia coli [34]
  MIC: 8 µM
Escherichia coli [35]
  MIC: 8 µM
Escherichia coli [36]
  MIC: > 32 µM
Escherichia coli [37]
  MIC: 8 µM
Escherichia coli [38]
  MIC: 2 µM
Erythrocyte
  HC10: 128 µM
[39]
  IC50 at 8 h: > 64 µM
[40]
  IC50 at 8 h: > 64 µM
[41]
  IC50 at 8 h: 20 µM
